19 compounds from patent US10722515B2, “Dual CLK/CDK1 inhibitors for cancer treatment” (SRI INTERNATIONAL, priority 2016, dated 2020) can be followed below.

For test [1], the system named is SK-MEL-2/Luc-MDM2 cells (MDM2-Luc exon-skipping reporter). Kind of test: cell-based MDM2-Luc exon-skipping reporter assay. Conditions: for activity in the MDM2-Luc assay: at 10 μM; for MDM2/Luc: luciferase activation vs DMSO control, average of three experiments; for MDM2-Luc activity: result in words, no concentration stated. A general note: In a reporter assay the amount or activity of a reporter protein is the signal.

Test [2] addresses T1, CLK1(h) (Homo sapiens, UniProt P49759).
T1 construct: purchased Eurofins, Dundee, Scotland
Kind of test: radiometric protein kinase assay, CLK1. Type of test: biochemical. Conditions: enzyme inhibition, radiometric, ATP 10 μM; read-out: IC50 (nM) CLK1. The protocol: (§1) Enzymatic biochemical activities were evaluated in radiometric protein kinase assays (Eurofins, Dundee, Scotland). Kinases are incubated with buffer, substrate and [γ-^33P]-ATP (specific activity approx. 500 cpm/pmol, concentration as required). The reaction is initiated by the addition of the MgATP mix. After incubation for 40 minutes at room temperature, the reaction is stopped by the addition of 3% phosphoric acid solution. 10 μL of the reaction is then spotted onto a P30 filtermat and washed three times for 5 minutes in 75 mM phosphoric acid and once in methanol prior to drying and scintillation counting.
(§2) All compounds are prepared to 50× final assay concentration in 100% DMSO. Positive control wells contain all components of the reaction with 2% DMSO. Blank wells contain all components of the reaction, with a reference inhibitor replacing the compound of interest. Each kinase is assigned a standard assay concentration of ATP within 20 μM of its apparent KM. Compounds were screened at 1 μM in duplicate or tested at 10 concentrations at half log dilution starting from 10 μM in singlicate. Dose response curves were fitted with four parameter logistic curve to obtain IC50 values. The average coefficient of variation (CV) of the conducted assay is 4.4%.

Test [3] deals with T2, CLK2(h) (Homo sapiens, UniProt P49760).
T2 construct: purchased Eurofins, Dundee, Scotland
T2 sequence (P49760 whole entry): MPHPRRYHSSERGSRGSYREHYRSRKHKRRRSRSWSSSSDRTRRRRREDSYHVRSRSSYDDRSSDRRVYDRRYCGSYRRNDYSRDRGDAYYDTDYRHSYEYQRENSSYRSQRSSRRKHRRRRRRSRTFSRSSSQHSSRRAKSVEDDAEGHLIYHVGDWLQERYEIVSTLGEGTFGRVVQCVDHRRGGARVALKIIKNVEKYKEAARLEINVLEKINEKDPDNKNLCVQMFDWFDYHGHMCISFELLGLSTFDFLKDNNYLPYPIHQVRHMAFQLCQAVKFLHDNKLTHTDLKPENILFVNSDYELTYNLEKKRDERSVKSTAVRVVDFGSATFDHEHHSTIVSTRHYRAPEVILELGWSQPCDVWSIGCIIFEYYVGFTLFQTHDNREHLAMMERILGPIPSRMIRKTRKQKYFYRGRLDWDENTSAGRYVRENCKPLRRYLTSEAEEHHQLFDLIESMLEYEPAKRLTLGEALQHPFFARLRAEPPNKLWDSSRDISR
Kind of test: radiometric protein kinase assay, CLK2. The class given is biochemical. Conditions: enzyme inhibition, ATP 10 μM. As for the experimental part: as §1, §2

In test [4] the target is T3, CLK3(h) (Homo sapiens, UniProt P49761).
T3 construct: purchased Eurofins, Dundee, Scotland
T3 sequence (P49761 whole entry): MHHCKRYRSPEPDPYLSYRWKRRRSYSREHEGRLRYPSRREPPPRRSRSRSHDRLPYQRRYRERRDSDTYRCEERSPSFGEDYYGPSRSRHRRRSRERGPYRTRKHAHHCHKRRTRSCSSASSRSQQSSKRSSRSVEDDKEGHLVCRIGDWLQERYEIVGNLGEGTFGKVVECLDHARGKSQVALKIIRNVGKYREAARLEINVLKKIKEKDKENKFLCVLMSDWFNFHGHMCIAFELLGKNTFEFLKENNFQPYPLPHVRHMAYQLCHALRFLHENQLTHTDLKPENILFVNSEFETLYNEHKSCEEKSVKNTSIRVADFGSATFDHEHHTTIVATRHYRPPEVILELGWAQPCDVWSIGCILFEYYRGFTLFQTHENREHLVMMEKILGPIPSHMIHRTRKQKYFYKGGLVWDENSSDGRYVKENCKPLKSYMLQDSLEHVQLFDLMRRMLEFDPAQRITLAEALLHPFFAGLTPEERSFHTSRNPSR
The test can be described thus: radiometric protein kinase assay, CLK3. The class given is biochemical. As for the experimental part: as §1, §2

For test [5], the target named is T4, CLK4(h) (Homo sapiens, UniProt Q9HAZ1).
T4 construct: purchased Eurofins, Dundee, Scotland
T4 sequence (Q9HAZ1 whole entry): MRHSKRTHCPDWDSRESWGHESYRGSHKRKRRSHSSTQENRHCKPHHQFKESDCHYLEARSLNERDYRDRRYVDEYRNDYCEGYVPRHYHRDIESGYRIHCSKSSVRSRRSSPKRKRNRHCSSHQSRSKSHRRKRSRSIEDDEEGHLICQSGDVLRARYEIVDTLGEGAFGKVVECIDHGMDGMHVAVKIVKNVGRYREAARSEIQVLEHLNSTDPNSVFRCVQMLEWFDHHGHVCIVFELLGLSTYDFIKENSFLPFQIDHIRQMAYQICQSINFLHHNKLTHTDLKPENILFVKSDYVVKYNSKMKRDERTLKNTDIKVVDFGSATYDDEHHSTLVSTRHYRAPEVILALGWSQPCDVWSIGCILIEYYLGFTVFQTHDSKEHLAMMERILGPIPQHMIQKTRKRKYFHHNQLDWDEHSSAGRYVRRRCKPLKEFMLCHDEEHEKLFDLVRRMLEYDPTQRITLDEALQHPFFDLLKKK
Kind of test: radiometric protein kinase assay, CLK4. The class given is biochemical. Conditions: enzyme inhibition, ATP 10 μM. As for the experimental part:
as §1, §2

The target of test [6] is T5, CDK1/cyclinB(h) (Homo sapiens, UniProt P06493).
T5 construct: purchased Eurofins, Dundee, Scotland
T5 sequence (P06493 whole entry): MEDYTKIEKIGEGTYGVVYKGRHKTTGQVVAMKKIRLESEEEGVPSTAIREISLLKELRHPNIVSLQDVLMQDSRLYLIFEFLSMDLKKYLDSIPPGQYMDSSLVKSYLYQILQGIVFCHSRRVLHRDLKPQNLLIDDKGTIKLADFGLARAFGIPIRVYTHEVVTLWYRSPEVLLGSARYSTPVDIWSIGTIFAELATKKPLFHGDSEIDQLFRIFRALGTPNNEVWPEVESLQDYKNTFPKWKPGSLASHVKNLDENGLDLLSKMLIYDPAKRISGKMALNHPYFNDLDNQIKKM
T5 sequence (P14635 whole entry partner): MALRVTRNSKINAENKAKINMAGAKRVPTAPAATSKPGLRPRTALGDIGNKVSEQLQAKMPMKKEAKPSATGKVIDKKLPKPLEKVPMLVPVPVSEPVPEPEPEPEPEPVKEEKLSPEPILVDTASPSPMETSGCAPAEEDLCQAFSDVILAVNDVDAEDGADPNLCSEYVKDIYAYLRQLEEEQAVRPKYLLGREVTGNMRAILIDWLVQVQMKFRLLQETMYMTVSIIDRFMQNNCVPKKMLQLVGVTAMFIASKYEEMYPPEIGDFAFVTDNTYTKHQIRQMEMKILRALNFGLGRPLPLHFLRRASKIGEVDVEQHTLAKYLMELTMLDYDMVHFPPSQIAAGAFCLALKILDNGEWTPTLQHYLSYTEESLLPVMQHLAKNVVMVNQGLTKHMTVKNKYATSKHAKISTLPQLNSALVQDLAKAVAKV
Kind of test: radiometric protein kinase assay, CDK1. As to conditions: enzyme inhibition, ATP 45 μM. The class given is biochemical. The protocol:
as §1, §2

Test [7] concerns the target T6, CDK4/cyclinD3(h) (Homo sapiens, UniProt P11802).
T6 construct: purchased Eurofins, Dundee, Scotland
Kind of test: radiometric protein kinase assay, CDK4. The class given is biochemical. As to conditions: enzyme inhibition, ATP 20 μM. As for the experimental part: as §1, §2

The target in test [8] is T7, CDK6/cyclinD3(h) (Homo sapiens, UniProt Q00534).
T7 construct: purchased Eurofins, Dundee, Scotland
T7 sequence (Q00534 whole entry): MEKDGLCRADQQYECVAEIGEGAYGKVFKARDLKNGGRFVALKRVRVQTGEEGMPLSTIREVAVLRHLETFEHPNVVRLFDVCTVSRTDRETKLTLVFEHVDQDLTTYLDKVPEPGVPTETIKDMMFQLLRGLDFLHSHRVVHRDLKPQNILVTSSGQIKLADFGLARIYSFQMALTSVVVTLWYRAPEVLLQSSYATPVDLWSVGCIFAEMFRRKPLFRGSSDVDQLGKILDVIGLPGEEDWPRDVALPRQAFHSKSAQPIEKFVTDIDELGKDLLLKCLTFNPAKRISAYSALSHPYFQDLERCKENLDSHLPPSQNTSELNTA
T7 sequence (P30281 whole entry partner): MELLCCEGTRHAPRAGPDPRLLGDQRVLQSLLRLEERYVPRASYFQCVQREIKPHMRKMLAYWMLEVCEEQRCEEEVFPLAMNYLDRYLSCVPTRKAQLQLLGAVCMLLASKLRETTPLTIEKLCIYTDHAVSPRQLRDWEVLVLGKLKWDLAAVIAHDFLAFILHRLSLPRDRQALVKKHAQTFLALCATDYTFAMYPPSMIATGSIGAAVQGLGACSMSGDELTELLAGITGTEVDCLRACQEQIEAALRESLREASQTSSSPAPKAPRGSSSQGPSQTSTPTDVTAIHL
The test can be described thus: radiometric protein kinase assay, CDK6. The class given is biochemical. Conditions: enzyme inhibition, ATP 20 μM. As for the experimental part:
as §1, §2

Where [9] appears, read: enzyme inhibition, radiometric, ATP 90 μM, read-out: IC50 (nM) CLK3.

Like-named read-outs stand apart in the source and are kept apart here.

T6 sequence (P11802 whole entry): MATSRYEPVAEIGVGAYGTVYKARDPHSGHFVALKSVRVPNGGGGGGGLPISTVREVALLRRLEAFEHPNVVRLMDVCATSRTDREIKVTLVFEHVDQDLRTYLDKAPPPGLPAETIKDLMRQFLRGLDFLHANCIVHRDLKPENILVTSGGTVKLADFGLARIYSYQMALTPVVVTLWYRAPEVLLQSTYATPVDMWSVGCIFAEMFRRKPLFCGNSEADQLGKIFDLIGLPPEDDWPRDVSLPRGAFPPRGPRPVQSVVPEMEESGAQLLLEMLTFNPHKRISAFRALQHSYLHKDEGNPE
T6 sequence (P30281 whole entry partner): as the sequence (P30281 whole entry partner) above
T1 sequence (P49759 whole entry): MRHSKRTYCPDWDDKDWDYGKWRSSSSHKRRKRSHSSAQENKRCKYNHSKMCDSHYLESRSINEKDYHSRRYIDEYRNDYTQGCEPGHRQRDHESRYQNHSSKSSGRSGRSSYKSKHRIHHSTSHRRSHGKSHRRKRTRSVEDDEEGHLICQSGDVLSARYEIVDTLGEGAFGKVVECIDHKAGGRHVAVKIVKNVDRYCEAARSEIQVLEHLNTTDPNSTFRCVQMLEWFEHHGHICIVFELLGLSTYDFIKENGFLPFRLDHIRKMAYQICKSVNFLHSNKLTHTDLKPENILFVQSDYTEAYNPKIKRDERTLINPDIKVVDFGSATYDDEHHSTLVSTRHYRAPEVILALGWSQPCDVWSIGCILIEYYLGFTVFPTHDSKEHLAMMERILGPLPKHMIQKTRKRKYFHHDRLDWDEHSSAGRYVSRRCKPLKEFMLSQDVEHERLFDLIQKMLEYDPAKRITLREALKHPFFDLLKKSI

Take `CC(C)n1ccc2c(Nc3cccc(Cl)c3)nc(NC3CCCCC3N)nc21` (racemic) [Compound 11, Racemic-N^2-Cis((2-Aminocyclohexyl)-N^4-(3-Chlorophenyl)-7-Isopropyl-7H-Pyrrolo[2,3-D]Pyrimidine-2,4-Diamine]: the “activity in the MDM2-Luc assay” value in test [1] was “completely abrogated all activity”.
For `CCn1cnc2c(Nc3cccc(Cl)c3)nc(NC3CCCCC3NC(C)=O)nc21` (racemic) [Compound 12, Racemic N-Cis(2-((6-((3-Chlorophenyl)Amino)-9-Ethyl-9H-Purin-2-Yl)Amino)Cyclohexyl) Acetamide], the “activity in the MDM2-Luc assay” value in test [1] is given as “completely abrogated all activity”.
Usually IC50 stands for the concentration at which inhibition is half-maximal. As to `CCn1cnc2c(Nc3cccc(Cl)c3)nc(N[C@@H]3CCCC[C@H]3N)nc21` [Compound 5, N-((1R,2R)-2-Aminocyclohexyl)-V-(3-Chlorophenyl)-9-Ethyl-9H-Purine-2,6-Diamine], the IC50 in test [2] is 868 nM; in test [3], 498 nM; in test [4], above 1000 nM; in test [5], above 1000 nM; in test [6], 546 nM; in test [7], above 1000 nM. The half-inhibitory concentration (IC50) in test [8] was above 1000 nM. The MDM2/Luc result in test [1] is listed as “Active”.
On to `CCn1cnc2c(Nc3cccc(Cl)c3)nc(N[C@H]3CCCC[C@@H]3N)nc21` [Compound 6, N^2-((1 S,2S)-2-Aminocyclohexyl)-V-(3-Chlorophenyl)-9-Ethyl-9H-Purine-2,6-Diamine], for which the IC50 in test [2] was 371 nM; in test [3], 190 nM; in test [4], above 1000 nM; in test [5], 498 nM; in test [6] it was above 1000 nM; in test [7] it was above 1000 nM. Moreover, the IC50 in test [8] was above 1000 nM. Further, the MDM2/Luc result in test [1] is recorded as “Active”.
With `CC(C)n1cnc2c(Nc3cccc(Cl)c3)nc(N[C@@H]3CCCC[C@H]3N)nc21` [Compound 7, N-((1R,2R)-2-Aminocyclohexyl)-N^6-(3-Chlorophenyl)-9-Isopropyl-9H-Purine-2,6-Diamine], the 50% inhibitory concentration (IC50) in test [2] is 400 nM; in test [3] it was 120 nM; in test [4] (setting [9]), above 1000 nM; in test [5], 634 nM; in test [6], above 1000 nM; in test [7], above 1000 nM. The 50% inhibitory concentration (IC50) in test [8] was above 1000 nM. The MDM2/Luc result in test [1] is on record as “Active”.
For `COCCNc1nc(Nc2cccc(Cl)c2)c2ncn(C(C)C)c2n1` [Compound 13, N^6-(3-Chlorophenyl)-9-Isopropyl-N^2-(2-Methoxyethyl)-9H-Purine-2,6-Diamine], in test [1], the MDM2-Luc activity entry was “dramatically reduced activity”.
`CC(C)n1cnc2c(Nc3cc(N)cc(Cl)c3)nc(N[C@@H]3CCCC[C@@H]3N)nc21` [Compound 16, 1V-(3-Amino-5-Chlorophenyl)-N-((1R,2S)-2-Aminocyclohexyl)-9-Isopropyl-9H-Purine-2,6-Diamine]: the values for the IC50 in test [2], in test [3] and in test [5] were 17 nM, 6 nM and 25 nM, respectively.
With `CC(C)n1cnc2c(Nc3cc(N)cc(Cl)c3)nc(N[C@H]3CCCC[C@H]3N)nc21` [Compound 17, N^6-(3-Amino-5-Chlorophenyl)-N^2-((1 S,2R)-2-Aminocyclohexyl)-9-Isopropyl-9H-Purine-2,6-Diamine], the 50% inhibitory concentration (IC50) in test [2] is 21 nM; in test [3], 26 nM; in test [4] (setting [9]), above 1000 nM; in test [5] it was 28 nM; in test [6], above 1000 nM; in test [7], above 1000 nM. For the same compound, in test [8], the 50% inhibitory concentration (IC50) is above 1000 nM.
For `CC(=O)Nc1cc(Cl)cc(Nc2nc(N[C@@H]3CCCC[C@@H]3N)nc3c2ncn3C(C)C)c1` [Compound 18, N-(3-((2-(((1R,2S)-2-Aminocyclohexyl)Amino)-9-Isopropyl-9H-Purin-6-Yl)Amino)-5-Chlorophenyl)Acetamide], the half-inhibitory concentration (IC50) was 19 nM in test [2]; 7 nM in test [3]; above 1000 nM in test [4] (setting [9]); 30 nM in test [5]; above 1000 nM in test [6]; 611 nM in test [7]. The half-inhibitory concentration (IC50) in test [8] is above 1000 nM.
In the case of `CC(=O)Nc1cc(Cl)cc(Nc2nc(N[C@H]3CCCC[C@H]3N)nc3c2ncn3C(C)C)c1` [Compound 19, N-(3-((2-(((1S,2R)-2-Aminocyclohexyl)Amino)-9-Isopropyl-9H-Purin-6-Yl)Amino)-5-Chlorophenyl)Acetamide], the IC50 in test [2] was 26 nM; in test [3], 17 nM; in test [4] (setting [9]), above 1000 nM; in test [5] it was 31 nM; in test [6], above 1000 nM; in test [7], above 1000 nM. In test [8], the IC50 is above 1000 nM.
For the compound `CC(C)n1cnc2c(Nc3cc(N)cc(Cl)c3)nc(N[C@H]3CCCC[C@@H]3N)nc21` [Compound 20, 1V-(3-Amino-5-Chlorophenyl)-M-((1 S,2S)-2-Aminocyclohexyl)-9-Isopropyl-9H-Purine-2,6-Diamine], the half-inhibitory concentration (IC50) in test [2] was 56 nM; in test [3], 14 nM; in test [4] (setting [9]), above 1000 nM; in test [5], 124 nM; in test [6] it was above 1000 nM; in test [7] it was above 1000 nM. The same compound registered an IC50 in test [8] above 1000 nM.
As to `CC(C)n1cnc2c(Nc3cc(N)cc(Cl)c3)nc(N[C@@H]3CCCC[C@H]3N)nc21` [Compound 21, N^6-(3-Amino-5-Chlorophenyl)-N-((1R,2R)-2-Aminocyclohexyl)-9-Isopropyl-9H-Purine-2,6-Diamine], the IC50 in test [2] was 274 nM; in test [3], 163 nM; in test [4] (setting [9]) it was above 1000 nM; in test [5] it was 648 nM; in test [6], above 1000 nM; in test [7] it was above 1000 nM. Moreover, the IC50 in test [8] is above 1000 nM.
Consider `CC(C)n1cnc2c(Nc3cc(N)cc(Cl)c3)nc(N[C@H]3CCCNC3)nc21` [Compound 22, (S)—N^6-(3-Amino-5-Chlorophenyl)-9-Isopropyl-N^2-(Piperidin-3-Yl)-9H-Purine-2,6-Diamine], for which the IC50 in test [2] was 31 nM; in test [3], 26 nM; in test [4] (setting [9]), above 1000 nM; in test [5] it was 61 nM; in test [6], above 1000 nM; in test [7] it was above 1000 nM. Also, the half-maximal inhibitory concentration (IC50) in test [8] is above 1000 nM.
For the compound `CC(C)n1cnc2c(Nc3cc(N)cc(Cl)c3)nc(N[C@@H]3CCCNC3)nc21` [Compound 23, (R)—N^6-(3-Amino-5-Chlorophenyl)-9-Isopropyl-N^2-(Piperidin-3-Yl)-9H-Purine-2,6-Diamine], the IC50 was 66 nM in test [2]; 34 nM in test [3]; above 1000 nM in test [4] (setting [9]); 102 nM in test [5]; above 1000 nM in test [6]; above 1000 nM in test [7]. This compound also gave a concentration for half-maximal inhibition (IC50) in test [8] above 1000 nM.
For the compound `CC(C)n1cnc2c(Nc3cc(N)cc(Cl)c3)nc(N[C@H]3CCNC3)nc21` [Compound 24, (S)—N^6-(3-Amino-5-Chlorophenyl)-9-Isopropyl-N^2-(Pyrrolidin-3-Yl)-9-Purine-2,6-Diamine], the IC50 in test [2] was 71 nM; in test [3], 28 nM; in test [4] (setting [9]), above 1000 nM; in test [5], 77 nM; in test [6], above 1000 nM; in test [7], above 1000 nM. In test [8], this compound had an IC50 above 1000 nM.
Take `CC(C)n1cnc2c(Nc3cc(N)cc(Cl)c3)nc(N[C@@H]3CCNC3)nc21` [Compound 25, (R)—N^6-(3-Amino-5-Chlorophenyl)-9-Isopropyl-N^2-(Pyrrolidin-3-Yl)-9H-Purine-2,6-Diamine]: the IC50 in test [2] is 118 nM; in test [3], 92 nM; in test [4] (setting [9]), above 1000 nM; in test [5], 299 nM; in test [6], above 1000 nM; in test [7], above 1000 nM. The compound further showed an IC50 in test [8] above 1000 nM.
With `CCOC(=O)c1c(/C(C#N)=C\N)c2ccc(Cl)c(Cl)c2n1C` [KH-CB19, reference compound], the MDM2-Luc activity entry in test [1] is “modest activity”.
For `O=C(Nc1cc(C(F)(F)F)ccc1N1CCCCC1)c1ccncc1` [SRPIN340, reference compound], in test [1], the “activity in the MDM2-Luc assay” value is “inactive”.
Same read-out and setting: with `CCc1cnn2c(NCc3ccc[n+]([O-])c3)cc(N3CCCC[C@H]3CCO)nc12` [dinaciclib, reference compound] the entry was “inactive”.
